Source: patent US9783513B2, “STAT3 inhibitors and their anticancer use” (Ohio State Innovation Foundation, priority 2012, dated 2017)
pIC50, pKd: −log10 of the molar value. “Also recorded” adds a separate entry of the source. Read-outs that look alike come from different tables or passages of the source. Each block holds one compound with its values, some of them ahead of it.

Key:
[1] = system: human sarcoma cell line U2OS; assay: Cell viability (MTT) assay, U2OS; type: cell-based
Description: (§1) Human sarcoma cell lines (RD2, RH30, U2OS) were seeded in 96-well plates at a density of 3,000 cells per well. The cells were incubated at 37° C. for a period of 24 hours. Different concentrations of LY-5 (0.1-10 μM), LY-3 (0.1-20 μM), and LLL12 (0.1-10 μM) prepared as a 20 mM stock solution in sterile DMSO were added in triplicate to the plates in the presence of 10% FBS. 3-(4,5-Dimethylthiazolyl)-2, 5-diphenyltetrazoliumbromide (MTT) was added to evaluate cell viability. The absorbance was read at 595 nm. IC50 values were determined using SigmaPlot 9.0 Software (Systat Software, Inc., San Jose, Calif.).
(§2) Alternatively, cells were seeded in 96-well plates in triplicate at a density of 3,000 cells per well and given 24 hours to adhere. Cells were then treated with varying concentrations of the inhibitors in the presence of 10% FBS. The cells were incubated for 72 hours at 37° C. 25 μl of MTT dye (Sigma, #M5655) was added to each sample and incubated for 3.5 hours. After this, 100 μl of N,N-dimethylformamide (Sigma, #D4551) solubilization solution was added to each well. The absorbance at 450 nm was read the following day. Half-Maximal inhibitory concentrations (IC50) were determined using Sigma Plot 9.0 software (Systat Software Inc.).
Table 6 below lists specific compounds as well as experimentally determined STAT3 activity in a cell-based assay. The STAT3 activity was determined using the cell viability assays with human sarcoma cell line U2OS as described above. The compounds in Table 6 were synthesized with methods identical or analogous to those described herein. The compound reference numbers (“Ref. No.”) in Table 6 correspond to the compound numbers used in Table 3.

STAT5 = assay: Western blot, STAT5 after OSM stimulation; type: cell-based, human; conditions: MCF-7; 1 and 2.5 μM; OSM 50 ng/mL
Description: (§3) RH30 cells were treated with DMSO, LY-5 (0.25-1 μM) and LY-3 (0.5-2.5 μM) prepared as a 20 mM stock solution in sterile DMSO at 60% to 80% confluence in the presence of 10% FBS for 24 hours. The sarcoma cell line EW8 was treated with DMSO and LY-5 (0.5-2.5 μM) prepared as a 20 mM stock solution in sterile DMSO at 60% to 80% confluence in the presence of 10% FBS for 24 hours. MCF-7 cells and DAOY cells were treated with DMSO, 25-50 ng/ml of IL-6, LY-5 (0.25-1 μM) or LY-3 (0.5-2.5 μM) prepared as a 20 mM stock solution in sterile DMSO, protein expressions of P-STAT3 (Tyr705) and STAT3 were tested. DAOY cells were treated with DMSO, 50 ng/ml of IFN-γ, LY-5 (1-5 μM) prepared as a 20 mM stock solution in sterile DMSO, protein expressions of P-STAT3 (Tyr705) and STAT3 were tested. MCF-7 cells were treated with DMSO, 50 ng/ml of OSM, LY-5 (1-2.5 μM) or LLL12 (1-2.5 μM) prepared as a 20 mM stock solution in sterile DMSO, protein expressions of P-STAT3 (Tyr705), P-STAT1, P-STAT5, P-ERK (T202/Y204), P-AKT, STAT3 and STAT1 were tested.
MCF-7 breast cancer cells were seeded in 10 cm plates and allowed to adhere overnight. The following day, the cells were serum-starved. The cells were then left untreated or were treated with LY-5 and LLL12 (1 μM and 2.5 μM) prepared as a 20 mM stock solution in sterile DMSO or DMSO. […] The cells were harvested after 30 minutes and analyzed by Western blot.

[2] = system: phosphorylated STAT3 (Tyr705); assay: Western blot, constitutive STAT3 phosphorylation; type: cell-based, human; conditions: RH30
[3] = system: OSM induced STAT3 phosphorylation; assay: Western blot, OSM induced STAT3 phosphorylation; type: cell-based, human; conditions: MCF-7; 1-2.5 μM; OSM 50 ng/mL
[4] = system: IL-6 induced STAT3 phosphorylation; assay: Western blot, IL-6 induced STAT3 phosphorylation; type: cell-based, human; conditions: MCF-7; LY-3 0.5-2.5 μM, LY-5 0.25-1 μM; 5 h; IL-6 25 ng/mL
Description: as §3
The cells were harvested and lysed in cold radioimmunoprecipitation assay (RIPA) lysis buffer containing […] and phosphatase inhibitor cocktail, and were subjected to SDS-PAGE. Then they were transferred to PVDF membrane. Membranes were probed with primary antibodies (1:1,000) and horseradish peroxidase (HRP)-conjugated secondary antibody (1:10,000) (Cell Signaling Technology, Beverly, Mass.). Membranes were analyzed using Enhanced Chemiluminescence Plus reagents and scanned with the Storm Scanner (Amersham Pharmacia Biotech, Inc., Piscataway, N.J.).
MCF-7 breast cancer cells were seeded in 10 cm plates and allowed to adhere overnight. The following day, the cells were serum-starved. The cells were then left untreated or were treated with LY-5 (0.25-1 μM) and LY-3 (0.5-2.5 μM) prepared as a 20 mM stock solution in sterile DMSO or DMSO. After 5 hours, the untreated and LY-5 and LY-3 treated cells were stimulated by IL-6 (25 ng/mL). The cells were harvested after 30 minutes and analyzed by Western blot. DAOY medulloblastoma cancer cells were seeded in 10 cm plates and allowed to adhere overnight. The following day, the cells were serum-starved. The cells were then left untreated or were treated with LY-5 (1-5 μM) prepared as a 20 mM stock solution in sterile DMSO or DMSO. After 2 hours, the untreated and LY-5 treated cells were stimulated by IL-6 (25 ng/mL). The cells were harvested after 30 minutes and analyzed by Western blot.

[5] = system: human sarcoma cell line RH30; assay: Cell viability (MTT) assay, RH30; type: cell-based
Description: as §1, §2
(§4) Table 7 below lists specific compounds as well as experimentally determined STAT3 activity in a cell-based assay. The STAT3 activity was determined using the cell viability assays with human sarcoma cell lines (RD2, RH30, U2OS) as described above. The compound reference numbers (“Ref. No.”) in Table 7 correspond to the compound numbers used in Table 3.

[6] = system: human sarcoma cell line RD2; assay: Cell viability (MTT) assay, RD2; type: cell-based
Description: as §1, §2, §4

STAT3 = STAT3 (Homo sapiens, UniProt P40763); assay: Microscale thermophoresis binding to STAT3; conditions: labeled STAT3 30 nM; LY17 1.52-50,000 nM
Description: The method provides the dissociation constant, KD. The microscale thermophoresis experiments were carried out at NanoTemper Technologies, Inc. (Munich, Germany). In these experiments, the concentration of the NanoTemper-labeled STAT3 was kept constant (30 nM), while the concentration of the non-labeled binding partner (LY17) was varied between 1.52 nM-50,000 nM. After a short incubation the samples were loaded into MST standard glass capillaries and the MST-analysis was performed using the Monolith.NT115.

[7] = Homo sapiens, Table 8, read-out: IC50 values vs. cell lines, U2OS
[8] = Homo sapiens, Table 2, cell line not given, read-out: IC50

Sequence of STAT3 (P40763 whole entry): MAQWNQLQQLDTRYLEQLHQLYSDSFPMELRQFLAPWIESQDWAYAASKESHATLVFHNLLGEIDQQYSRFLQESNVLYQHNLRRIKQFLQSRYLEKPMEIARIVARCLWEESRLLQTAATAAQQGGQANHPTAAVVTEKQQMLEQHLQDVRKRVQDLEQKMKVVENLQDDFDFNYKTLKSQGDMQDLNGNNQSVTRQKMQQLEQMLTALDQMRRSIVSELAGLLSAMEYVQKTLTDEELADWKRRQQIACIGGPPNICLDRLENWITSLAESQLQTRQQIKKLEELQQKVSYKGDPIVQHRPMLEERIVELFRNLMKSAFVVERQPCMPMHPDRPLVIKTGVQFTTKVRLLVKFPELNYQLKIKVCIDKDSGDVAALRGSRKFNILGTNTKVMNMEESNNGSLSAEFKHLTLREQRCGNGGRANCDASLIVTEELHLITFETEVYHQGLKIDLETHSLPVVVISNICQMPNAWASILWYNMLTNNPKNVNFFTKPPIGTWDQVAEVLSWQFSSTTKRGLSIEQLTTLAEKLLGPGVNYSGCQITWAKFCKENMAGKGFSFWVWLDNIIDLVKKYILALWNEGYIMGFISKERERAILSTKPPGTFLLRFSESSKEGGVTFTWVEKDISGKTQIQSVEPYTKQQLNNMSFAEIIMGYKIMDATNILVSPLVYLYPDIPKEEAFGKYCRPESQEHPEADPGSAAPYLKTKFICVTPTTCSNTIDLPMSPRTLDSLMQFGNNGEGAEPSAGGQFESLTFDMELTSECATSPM

Compound: 5,8-dioxo-6-(phenylamino)-5,8-dihydronaphthalene-1-sulfonamide [LY-7]
pIC50 ([1]; Table 2, cell line not given, read-out: IC50): 5.60

Compound: NS(=O)(=O)c1cccc2c1C(=O)c1cccc(O)c1C2=O [LLL12, 5-hydroxy-9,10-dioxo-9,10-dihydroanthracene-1-sulfonamide, reference compound]
pIC50 [1, 7]: 6.00
inhibition of STAT5 (STAT5): exhibit inhibition
STAT3 phosphorylation at Y705 and S727 ([2]; 5 μM in DMSO or ethanol, 2 h): decrease in STAT3 phosphorylation at Y705 and S727
OSM induced STAT3 phosphorylation [3]: inhibit

Compound: NS(=O)(=O)c1cccc2c1C(=O)C=C(Nc1ccccc1)C2=O [LY-7, 5,8-dioxo-6-(phenylamino)-5,8-dihydronaphthalene-1-sulfonamide]
pIC50 ([1]; Homo sapiens, Table 6, read-out: IC50): < 5.30

Compound: NS(=O)(=O)c1cccc2c1C(=O)C=C(Nc1ccccc1N1CCNCC1)C2=O [LY-17]
pKd (STAT3): 5.62

Continued, in another order:

pIC50 ([1]; Table 6, read-out: IC50): 5.60
Compound: 4-(naphthalen-2-ylamino)-5H-naphtho[1,8-cd]isothiazol-5-one 1,1-dioxide [LY-6]

pIC50 [1, 8]: 5.30
Compound: O=C1C(Nc2ccccc2)=CC2=NS(=O)(=O)c3cccc1c32 [LY-2, 4-(Phenylamino)-5H-naphtho[1,8-cd]isothiazol-5-one 1,1-dioxide]

pIC50 [1, 8]: 5.85
pIC50 ([1]; Homo sapiens, Table 7, read-out: IC50 U2OS): 5.86
pIC50 [1, 7]: 5.86
pIC50 ([5]; Table 7, read-out: IC50 RH30): 5.94
pIC50 ([5]; Table 8, read-out: IC50 values vs. cell lines, RH30): 5.94
pIC50 ([6]; Table 7, read-out: IC50 RD2): 5.59
pIC50 ([6]; Table 8, read-out: IC50 values vs. cell lines, RD2): 5.59
Compound: O=C1C(Nc2ccc([N+](=O)[O-])cc2Cl)=CC2=NS(=O)(=O)c3cccc1c32 [LY-3, 4-((2-chloro-4-nitrophenyl)amino)-5H-naphtho[1,8-cd]isothiazol-5-one 1,1-dioxide]
IL-6 induced STAT3 phosphorylation [4]: inhibit; also recorded: blocked the stimulation
concentration almost completely inhibiting Tyr705 phosphorylation ([2]; 16 h): 1 µM
constitutive STAT3 phosphorylation ([2]; LY-3 0.5-2.5 μM, LY-5 0.25-1 μM, 16 h): decrease in STAT3 phosphorylation; also recorded: reduced in a dose-dependent manner

pIC50 [1, 8]: < 5.30
Compound: NC(=O)NS(=O)(=O)c1ccc(NC2=CC(=O)c3c(cccc3S(N)(=O)=O)C2=O)cc1 [LY-9]
